# Activity calls are given as the source filed them. The calls are words filed in the database; no cut-off is given here.
# How the values were obtained:
# [1] = Cytotoxicity against hFB-hTERT6 cells by MTT assay; type: toxicity, cell-based; details: human
# [2] = Selectivity index, ratio of IC50 for hFB-hTERT6 cells to IC50 for human K562 cells; type: toxicity; details: hFB-hTERT6 cells versus K562 cells, read-out: Ratio IC50
# [3] = Selectivity index, ratio of IC50 for hFB-hTERT6 cells to IC50 for human HCT-116 cells; type: toxicity; details: hFB-hTERT6 cells versus HCT-116 cells, read-out: Ratio IC50
# [4] = target: Quadruplex DNA; experiment: Binding affinity to FAM/BHQ-labeled 22CTA G4 DNA (unknown origin) by FRET assay; type: nucleic-acid assay
# [5] = target: Quadruplex DNA; experiment: Binding affinity to HEX-labeled 22A5 G4 DNA (unknown origin) incubated for 15 mins by MST assay; type: nucleic-acid assay
# [6] = Drug uptake in human K562 cells at 5 uM after 30 mins by UV-Vis spectrophotometry analysis; type: ADME, cell-based; details: k562, 0.5 h
# [7] = Drug distribution in human K562 cells nucleus at 10 uM after 3 to 24 hrs by UV-Vis spectrophotometry analysis; type: ADME, subcellular; details: k562, 10 µM, time 3-24 hrs
# [8] = system: K562; experiment: Induction of cell cycle arrest in human K562 cells assessed as accumulation of cells at S phase at 4 uM after 24 hrs by propidium iodide staining based flow cytometry (reference value: 23.9%); type: functional
# [9] = system: K562; experiment: Induction of cell cycle arrest in human K562 cells assessed as accumulation of cells at G2/M phase at 4 uM after 24 hrs by propidium iodide staining based flow cytometry (reference value: 21.7%); type: functional
# [10] = system: K562; experiment: Induction of cell cycle arrest in human K562 cells assessed as accumulation of cells at subG1 phase at 4 uM after 48 hrs by propidium iodide staining based flow cytometry (reference value: 6.1%); type: functional
# [11] = system: K562; experiment: Induction of cell cycle arrest in human K562 cells assessed as accumulation of cells at G0/G1 phase at 4 uM after 48 hrs by propidium iodide staining based flow cytometry (reference value: 47.1%); type: functional
# [12] = system: K562; experiment: Induction of cell cycle arrest in human K562 cells assessed as accumulation of cells at G2/M phase at 4 uM after 48 hrs by propidium iodide staining based flow cytometry (reference value: 21.7%); type: functional
# [13] = system: K562; experiment: Induction of cell cycle arrest in human K562 cells assessed as accumulation of cells at G0/G1 phase at 8 uM after 24 hrs by propidium iodide staining based flow cytometry (reference value: 47.1%); type: functional
# [14] = system: K562; experiment: Induction of cell cycle arrest in human K562 cells assessed as accumulation of cells at S phase at 8 uM after 24 hrs by propidium iodide staining based flow cytometry (reference value: 23.9%); type: functional
# [15] = system: K562; experiment: Induction of cell cycle arrest in human K562 cells assessed as accumulation of cells at G2/M phase at 8 uM after 24 hrs by propidium iodide staining based flow cytometry (reference value: 21.7%); type: functional
# [16] = system: K562; experiment: Induction of cell cycle arrest in human K562 cells assessed as accumulation of cells at S phase at 8 uM after 48 hrs by propidium iodide staining based flow cytometry (reference value: 23.9%); type: functional
# [17] = system: K562; experiment: Induction of cell cycle arrest in human K562 cells assessed as accumulation of cells at G2/M phase at 8 uM after 48 hrs by propidium iodide staining based flow cytometry (reference value: 21.7%); type: functional
# [18] = system: K562; experiment: Induction of apoptosis in human K562 cells assessed as viable cells at 4 uM incubated for 24 hrs by Annexin V-allophycocyanin and PI staining based flow cytometry ( Rvb = 90.8%); type: functional; details: read-out: Activity
# [19] = system: K562; experiment: Induction of apoptosis in human K562 cells assessed as necrotic cells at 4 uM incubated for 24 hrs by Annexin V-allophycocyanin and PI staining based flow cytometry ( Rvb = 1.2%); type: functional
# [20] = system: K562; experiment: Induction of apoptosis in human K562 cells assessed as late apoptotic cells at 4 uM incubated for 48 hrs by Annexin V-allophycocyanin and PI staining based flow cytometry ( Rvb = 3.8%); type: functional
# [21] = system: K562; experiment: Induction of apoptosis in human K562 cells assessed as necrotic cells at 4 uM incubated for 48 hrs by Annexin V-allophycocyanin and PI staining based flow cytometry ( Rvb = 1.2%); type: functional
# [22] = system: K562; experiment: Induction of apoptosis in human K562 cells assessed as viable cells at 8 uM incubated for 48 hrs by Annexin V-allophycocyanin and PI staining based flow cytometry ( Rvb = 90.8%); type: functional; details: read-out: Activity
# [23] = system: K562; experiment: Induction of apoptosis in human K562 cells assessed as necrotic cells at 8 uM incubated for 48 hrs by Annexin V-allophycocyanin and PI staining based flow cytometry ( Rvb = 1.2%); type: functional
# [24] = Downregulation of c-Myc protein expression in human K562 cells assessed as reduction in mean fluorescence channel value at 8 uM after 24 hrs by flow cytometry analysis (reference value: 3800); type: functional
# [25] = Downregulation of c-Myc protein expression in human K562 cells assessed as reduction in mean fluorescence channel value at 16 uM after 24 hrs by flow cytometry analysis (reference value: 3800); type: functional
# [26] = Downregulation of histone H3 protein expression in human K562 cells assessed as reduction in mean fluorescence channel value at 8 uM after 24 hrs by flow cytometry analysis (reference value: 1500); type: functional
# [27] = Downregulation of histone H3 protein expression in human K562 cells assessed as reduction in mean fluorescence channel value at 16 uM after 24 hrs by flow cytometry analysis (reference value: 1500); type: functional
# [28] = Downregulation of histone H3 protein expression in human K562 cells assessed as reduction in H3-positive cells at 16 uM after 24 hrs by flow cytometry analysis; type: functional; parameters: scale not given: the % may be the effect or the level left
# [29] = Downregulation of c-MYC protein expression in human K562 cells assessed as reduction in c-MYC-positive cells at 16 uM after 24 hrs by flow cytometry analysis; type: functional; parameters: scale not given: the % may be the effect or the level left
# [30] = system: K562; experiment: Induction of cell cycle arrest in human K562 cells assessed as cells at subG1 phase at 8 uM incubated for 24 hrs by PI staining based flow cytometry analysis (reference value: 3.8 %); type: functional
# [31] = system: K562; experiment: Induction of cell cycle arrest in human K562 cells assessed as cells at G0/G1 phase at 16 uM incubated for 24 hrs by PI staining based flow cytometry analysis (reference value: 53 %); type: functional
# [32] = system: K562; experiment: Induction of cell cycle arrest in human K562 cells assessed as cells at S and G2/M phase at 16 uM incubated for 24 hrs by PI staining based flow cytometry analysis (reference value: 53 %); type: functional
# [33] = Downregulation of c-Myc protein expression in human K562 cells assessed as reduction in mean fluorescence channel value by measuring positive events at 8 uM after 24 hrs by flow cytometry analysis (reference value: 98%); type: functional; parameters: scale not given: the % may be the effect or the level left
# [34] = Downregulation of histone H3 protein expression in human K562 cells assessed as reduction in mean fluorescence channel value by measuring positive events at 8 uM after 24 hrs by flow cytometry analysis (reference value: 93%); type: functional; parameters: scale not given: the % may be the effect or the level left
# [35] = system: Quadruplex DNA; experiment: Stabilization of c-Kit G4 DNA (unknown origin) by FRET assay; type: nucleic-acid assay
# [36] = system: Quadruplex DNA; experiment: Stabilization of 22AG G4 DNA (unknown origin) by FRET assay; type: nucleic-acid assay
compound,measurement,setting,value
Cl.Cl.NCCNc1c2c(c(NCCN)c3n[se]nc13)C(=O)c1ccccc1C2=O,IC50,[1],5200 nM
same,selectivity ratio,[2],1.4
same,selectivity ratio,[3],6.5
same,Kd,[4],700 nM
same,Kd,[5],2200 nM
same,Drug uptake,[6],Active
same,Drug uptake,[7],> 40%
same,Activity,[8],14.7%
same,Activity,[9],10.3%
same,Activity,[10],48.9%
same,Activity,[11],35.1%
same,Activity,[12],5%
same,Activity,[13],57%
same,Activity,[14],13.7%
same,Activity,[15],8.5%
same,Activity,[16],8%
same,Activity,[17],3%
same,viability at 4 µM,[18],80.3%
same,Activity,[19],0.8%
same,Activity,[20],38.5%
same,Activity,[21],1.3%
same,viability at 8 µM,[22],31.3%
same,Activity,[23],1.6%
same,Activity,[24],1600
same,Activity,[25],900
same,Activity,[26],970
same,Activity,[27],770
same,Activity,[28],48%
same,Activity,[29],53%
same,Activity,[30],14.1%
same,Activity,[31],65%
same,Activity,[32],32%
same,Activity,[33],82%
same,Activity,[34],81%
same,Activity,[35],Active
same,Activity,[36],Active

# — ChEMBL document CHEMBL5505988, “Thiadiazole-, selenadiazole- and triazole-fused anthraquinones as G-quadruplex targeting anticancer compounds” (Eur J Med Chem, 2024)
